According to the supplement of paper PMC10307832:

Legend:
Assay in all cases: relative viability (nuclei count vs DMSO), 5 days (fraction); higher = more cells survive
GSK126 + Pictilisib = compound: CC[C@H](C)N1C=C(C2=C(C=C(C=C21)C3=CN=C(C=C3)N4CCNCC4)C(=O)NCC5=C(C=C(NC5=O)C)C)C [GSK126] + CS(=O)(=O)N1CCN(Cc2cc3nc(-c4cccc5[nH]ncc45)nc(N4CCOCC4)c3s2)CC1 [Pictilisib] (partner 1 µM)
Summary of the method: (§1)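 After 5 days of treatment, lung cancer cells in 1536-well plates were fixed and stained in a single step (final 0.05% Triton X-100, 1% formaldehyde, 1 ug/ml Hoechst) and their nuclei counted on 4× images. Treatment had been applied by pin tool the day after seeding as one drug alone or as a fixed anchor-drug dose with five library-drug doses (not always all listed) in √10 steps. Relative viability is the nuclei count of treated wells divided by that of vehicle wells, and values are medians of duplicate plates.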

GSK126 + Tozasertib = compound: CC[C@H](C)N1C=C(C2=C(C=C(C=C21)C3=CN=C(C=C3)N4CCNCC4)C(=O)NCC5=C(C=C(NC5=O)C)C)C [GSK126] + Cc1cc(Nc2cc(N3CCN(C)CC3)nc(Sc3ccc(NC(=O)C4CC4)cc3)n2)n[nH]1 [Tozasertib] (partner 0.1 µM)
Summary of the method: as §1

MLN4924 + Alpelisib = compound: NS(=O)(=O)OC[C@@H]1C[C@@H](n2ccc3c(N[C@H]4CCc5ccccc54)ncnc32)C[C@@H]1O [MLN4924] + Cc1nc(NC(=O)N2CCC[C@H]2C(N)=O)sc1-c1ccnc(C(C)(C)C(F)(F)F)c1 [Alpelisib] (partner 2 µM)
Summary of the method: as §1

MLN4924 + Olaparib = compound: NS(=O)(=O)OC[C@@H]1C[C@@H](n2ccc3c(N[C@H]4CCc5ccccc54)ncnc32)C[C@@H]1O [MLN4924] + O=C(c1cc(Cc2n[nH]c(=O)c3ccccc23)ccc1F)N1CCN(C(=O)C2CC2)CC1 [Olaparib] (partner 8 µM)
Summary of the method: as §1

## UMC-11
GSK126 + Pictilisib; first compound 0.08 µM
  relative viability: 0.91
GSK126 + Pictilisib; first compound 0.253 µM
  relative viability: 0.85
GSK126 + Pictilisib; first compound 0.8 µM
  relative viability: 0.882
GSK126 + Pictilisib; first compound 2.53 µM
  relative viability: 0.829
GSK126 + Pictilisib; first compound 8 µM
  relative viability: 0.714
GSK126 + Tozasertib; first compound 0.08 µM
  relative viability: 0.205
GSK126 + Tozasertib; first compound 0.253 µM
  relative viability: 0.209
GSK126 + Tozasertib; first compound 0.8 µM
  relative viability: 0.197
GSK126 + Tozasertib; first compound 2.53 µM
  relative viability: 0.188
GSK126 + Tozasertib; first compound 8 µM
  relative viability: 0.199
MLN4924 + Alpelisib; first compound 0.04 µM
  relative viability: 0.59
MLN4924 + Alpelisib; first compound 0.1265 µM
  relative viability: 0.249
MLN4924 + Alpelisib; first compound 0.4 µM
  relative viability: 0.254
MLN4924 + Alpelisib; first compound 1.265 µM
  relative viability: 0.128
MLN4924 + Alpelisib; first compound 4 µM
  relative viability: 0.13
MLN4924 + Olaparib; first compound 0.04 µM
  relative viability: 0.408
MLN4924 + Olaparib; first compound 0.1265 µM
  relative viability: 0.246
MLN4924 + Olaparib; first compound 0.4 µM
  relative viability: 0.255
MLN4924 + Olaparib; first compound 1.265 µM
  relative viability: 0.154
MLN4924 + Olaparib; first compound 4 µM
  relative viability: 0.138
